From ChEMBL document CHEMBL4020753, “Inhibition of amyloid β aggregation and protective effect on SH-SY5Y cells by triterpenoid saponins from the cactus Polaskia chichipe” (Bioorg Med Chem, 2017) come the findings set out here.

Active and inactive are the calls of the source. The calls are words filed in the database; no cut-off is given here.

What all share (assay type): cell-based
Test [1] addresses Amyloid-beta precursor protein (Homo sapiens) (UniProt P05067). Nature of the test: Inhibition of amyloid beta (1 to 42) (unknown origin)-induced cytotoxicity in human SH-SY5Y cells assessed as cell viability at 50 uM after 24 hrs by WST8 assay (reference value: 63.1 +/- 5.6%).
Test [2] has the same target. Nature of the test: Inhibition of amyloid beta (1 to 42) (unknown origin)-induced cytotoxicity in human SH-SY5Y cells assessed as increase in cell viability at 12.5 uM after 24 hrs by WST8 assay.
Test [3] shares this target. Nature of the test: Inhibition of amyloid beta (1 to 42) (unknown origin)-induced cytotoxicity in human SH-SY5Y cells assessed as increase in cell viability at 50 uM after 24 hrs by WST8 assay.
The target is the same in test [4]. Nature of the test: Inhibition of amyloid beta (1 to 42) (unknown origin)-induced cytotoxicity in human SH-SY5Y cells assessed as cell viability at 6.25 uM after 24 hrs by WST8 assay (reference value: 63.1 +/- 5.6%).

Sequence of Amyloid-beta precursor protein (Homo sapiens) (P05067 whole entry): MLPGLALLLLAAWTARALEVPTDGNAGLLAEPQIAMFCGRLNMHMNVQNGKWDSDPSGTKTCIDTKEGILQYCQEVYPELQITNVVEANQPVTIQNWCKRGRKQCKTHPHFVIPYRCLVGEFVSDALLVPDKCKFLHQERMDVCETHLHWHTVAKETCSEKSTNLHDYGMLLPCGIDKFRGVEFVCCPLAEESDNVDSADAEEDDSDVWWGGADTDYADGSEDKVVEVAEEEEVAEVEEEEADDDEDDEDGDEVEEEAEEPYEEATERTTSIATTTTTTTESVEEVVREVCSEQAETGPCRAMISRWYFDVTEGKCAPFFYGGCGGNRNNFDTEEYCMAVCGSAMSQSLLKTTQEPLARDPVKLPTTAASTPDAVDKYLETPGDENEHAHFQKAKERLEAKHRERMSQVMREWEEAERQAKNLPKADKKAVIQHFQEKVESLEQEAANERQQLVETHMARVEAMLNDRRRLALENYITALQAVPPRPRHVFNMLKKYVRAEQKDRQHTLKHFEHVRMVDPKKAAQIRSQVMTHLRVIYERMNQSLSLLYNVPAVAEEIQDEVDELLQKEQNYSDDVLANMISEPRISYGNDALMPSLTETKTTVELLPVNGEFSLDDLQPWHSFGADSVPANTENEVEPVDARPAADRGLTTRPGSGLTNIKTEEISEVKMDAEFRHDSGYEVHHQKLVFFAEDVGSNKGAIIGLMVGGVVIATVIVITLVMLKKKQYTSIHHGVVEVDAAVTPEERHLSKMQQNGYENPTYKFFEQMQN

Regarding `CC(=O)OC[C@]12[C@@H](OC(C)=O)CC(C)(C)C[C@H]1C1=CC[C@@H]3[C@@]4(C)CC[C@H](O[C@@H]5O[C@H](C(=O)O)[C@@H](O)[C@H](O)[C@H]5O[C@@H]5O[C@H](CO)[C@@H](O)[C@H](O)[C@H]5O[C@@H]5OC[C@@H](O)[C@H](O)[C@H]5O)C(C)(C)[C@@H]4CC[C@@]3(C)[C@]1(C)C[C@@H]2OC(C)=O`, the Activity in test [1] was 83.7%.

Regarding `CC1(C)CC[C@]2(C(=O)O)CC[C@]3(C)C(=CC[C@@H]4[C@@]5(C)CC[C@H](O)C(C)(C)[C@@H]5CC[C@]43C)[C@@H]2C1`, in test [2], the inhibition entry is “inactive”.

On to `COC(=O)[C@H]1O[C@@H](O[C@H]2CC[C@]3(C)[C@H]4CC=C5[C@@H]6CC(C)(C)C[C@H](OC(C)=O)[C@]6(COC(C)=O)[C@@H](OC(C)=O)C[C@@]5(C)[C@]4(C)CC[C@H]3C2(C)C)[C@H](O[C@@H]2O[C@H](CO)[C@@H](O)[C@H](O)[C@H]2O)[C@@H](O[C@@H]2O[C@@H](C)[C@H](O)[C@@H](O)[C@H]2O)[C@@H]1O`, for which the Activity in test [1] turned out to be 79.2%.

For the compound `CC(=O)OC[C@]12[C@@H](OC(C)=O)CC(C)(C)C[C@H]1C1=CC[C@@H]3[C@@]4(C)CC[C@H](O[C@@H]5O[C@H](C(=O)O)[C@@H](O)[C@H](O[C@@H]6O[C@@H](C)[C@H](O)[C@@H](O)[C@H]6O)[C@H]5O[C@@H]5O[C@H](CO)[C@@H](O)[C@H](O)[C@H]5O)C(C)(C)[C@@H]4CC[C@@]3(C)[C@]1(C)C[C@@H]2OC(C)=O`, the Activity in test [1] came out at 87.4%.

Consider `CC(=O)OC[C@]12[C@@H](OC(C)=O)CC(C)(C)C[C@H]1C1=CC[C@@H]3[C@@]4(C)CC[C@H](O[C@@H]5O[C@H](C(=O)O)[C@@H](O)[C@H](O)[C@H]5O[C@@H]5O[C@H](CO)[C@@H](O)[C@H](O)[C@H]5O[C@@H]5O[C@@H](C)[C@H](O)[C@@H](O)[C@H]5O)C(C)(C)[C@@H]4CC[C@@]3(C)[C@]1(C)C[C@@H]2OC(C)=O`, for which the “protection from amyloid beta cytotoxicity (active/not active)” value (“protection … (active/not active)” for short) in test [3] is “inactive”.

In the case of `COC(=O)[C@H]1O[C@@H](O[C@H]2CC[C@]3(C)[C@H]4CC=C5[C@@H]6CC(C)(C)C[C@H](OC(C)=O)[C@]6(COC(C)=O)[C@@H](OC(C)=O)C[C@@]5(C)[C@]4(C)CC[C@H]3C2(C)C)[C@H](O[C@@H]2O[C@H](CO)[C@@H](O)[C@H](O)[C@H]2O[C@@H]2OC[C@@H](O)[C@H](O)[C@H]2O)[C@@H](O)[C@@H]1O`, the Activity in test [1] is 84.3%.

Consider `CC1(C)CC[C@]2(C(=O)O)[C@@H](O)C[C@]3(C)C(=CC[C@@H]4[C@@]5(C)CC[C@H](O)C(C)(C)[C@@H]5CC[C@]43C)[C@@H]2C1`, for which, in test [2], the inhibition entry was “inactive”.

Consider `CC1(C)C[C@H](O)[C@]2(CO)[C@@H](O)C[C@]3(C)C(=CC[C@@H]4[C@@]5(C)CC[C@H](O)C(C)(C)[C@@H]5CC[C@]43C)[C@@H]2C1`, for which the inhibition result in test [2] is “inactive”.

With `C[C@@H]1O[C@@H](O[C@H]2[C@H](O)[C@@H](C(=O)O)O[C@@H](O[C@H]3CC[C@]4(C)[C@H]5CC=C6[C@@H]7CC(C)(C)CC[C@]7(C(=O)O[C@@H]7O[C@H](CO)[C@@H](O)[C@H](O)[C@H]7O)CC[C@@]6(C)[C@]5(C)CC[C@H]4C3(C)C)[C@@H]2O[C@@H]2O[C@H](CO)[C@@H](O)[C@H](O)[C@H]2O)[C@H](O)[C@H](O)[C@H]1O`, in test [3], the “protection … (active/not active)” value is “Active”.

As to `O=C(OC[C@H]1O[C@@H](OC(=O)c2cc(O)c(O)c(OC(=O)c3cc(O)c(O)c(O)c3)c2)[C@H](OC(=O)c2cc(O)c(O)c(OC(=O)c3cc(O)c(O)c(O)c3)c2)[C@@H](OC(=O)c2cc(O)c(O)c(OC(=O)c3cc(O)c(O)c(O)c3)c2)[C@@H]1OC(=O)c1cc(O)c(O)c(OC(=O)c2cc(O)c(O)c(O)c2)c1)c1cc(O)c(O)c(OC(=O)c2cc(O)c(O)c(O)c2)c1`, the Activity in test [4] worked out at 78.8%. The inhibition result in test [2] is “inactive”.

Turning to `CC(=O)OC[C@]12[C@@H](OC(C)=O)CC(C)(C)C[C@H]1C1=CC[C@@H]3[C@@]4(C)CC[C@H](O)C(C)(C)[C@@H]4CC[C@@]3(C)[C@]1(C)C[C@@H]2OC(C)=O`, the inhibition entry in test [2] is “inactive”.

With `C[C@@H]1O[C@@H](OC(=O)[C@]23CCC(C)(C)C[C@H]2C2=CC[C@@H]4[C@@]5(C)CC[C@H](O[C@@H]6O[C@H](C(=O)O)[C@@H](O)[C@H](O)[C@H]6O[C@@H]6O[C@H](CO)[C@@H](O)[C@H](O)[C@H]6O[C@@H]6OC[C@@H](O)[C@H](O)[C@H]6O)C(C)(C)[C@@H]5CC[C@@]4(C)[C@]2(C)C[C@@H]3O)[C@H](O)[C@H](O)[C@H]1O`, the “protection … (active/not active)” value in test [3] was “Active”.

With `CC1(C)CC[C@]2(C(=O)O[C@@H]3O[C@H](CO)[C@@H](O)[C@H](O)[C@H]3O)CC[C@]3(C)C(=CC[C@@H]4[C@@]5(C)CC[C@H](O[C@@H]6O[C@H](C(=O)O)[C@@H](O)[C@H](O)[C@H]6O[C@@H]6O[C@H](CO)[C@@H](O)[C@H](O)[C@H]6O[C@@H]6OC[C@@H](O)[C@H](O)[C@H]6O)C(C)(C)[C@@H]5CC[C@]43C)[C@@H]2C1`, the “protection … (active/not active)” value in test [3] is “Active”.

`C[C@@H]1O[C@@H](OC(=O)[C@]23CCC(C)(C)C[C@H]2C2=CC[C@@H]4[C@@]5(C)CC[C@H](O[C@@H]6O[C@H](C(=O)O)[C@@H](O)[C@H](O[C@@H]7O[C@@H](C)[C@H](O)[C@@H](O)[C@H]7O)[C@H]6O[C@@H]6O[C@H](CO)[C@@H](O)[C@H](O)[C@H]6O)C(C)(C)[C@@H]5CC[C@@]4(C)[C@]2(C)C[C@@H]3O)[C@H](O)[C@H](O)[C@H]1O`: in test [3], the “protection … (active/not active)” value is “Active”.
